Consider two compounds from patent EP2607478A1, “Phenanthroline treated MSC” (Universiteit Twente, priority 2011, dated 2013).

The test system of one test is MSCs. Description: Gene expression analysis by real-time qPCR in treated MSCs. In kind it is cell-based, Human. The conditions noted are these: for expression of Il-8, VEGF, KDR and Foxc2: 2 days treatment, medium refreshed, 2 more days in basic medium (Figure 8); for VEGF expression: after 2 days of treatment and 2 more days of incubation with fresh medium (Figure 8). The protocol: MSCs were seeded in triplicate in 6-well plates at 5000 cells/cm^2 and allowed to attach for 10-15 hours in proliferation medium. Upon reaching near confluency, cells were treated as described above. After 2 days of treatment and 2 subsequent days of incubation with fresh medium, cells were lysed immediately with TRIzol. RNA was isolated using a Bioke RNA II nucleospin RNA isolation kit (Machery Nagel) and RNA concentrations were measured using an ND100 spectrophotometer (Nanodrop technologies, USA). cDNA was synthesized from 100 ng of RNA, using iScript (BioRad) according to the manufacturer's protocol. For qualitative PCR, a master mix, containing distilled water, forward primer, reverse primer (Sigma Genosys), BSA, and SYBR green I mix (all from Invitrogen) was prepared. Real-time qPCR was performed in a Light-Cycler (Roche). Light-Cycler data was analyzed using the fit points method of Light-Cycler software. The baseline was set at the lower log-linear part above baseline noise and the crossing […] (Ct value) was determined. Ct values were normalized to the 18S housekeeping gene and delta Ct (Ct, control ― Ct, sample) was used to calculate the upregulation in gene expression (53).
A general note: In qPCR the cycle at which signal appears reflects the starting amount.

For the next test, the system named is male C57/BL6 mice. As to the kind of experiment: In vivo murine matrigel plug assay. The conditions noted are these: matrigel plug with DFO (150 uM) or PHE (200 uM), subcutaneous, 7 days, versus PBS. As to the method: In vivo angiogenesis analysis was performed using a matrigel plug assay in male C57/BL6 mice (age 8 weeks)(Charles River). Growth factor reduced matrigel (0.5 ml) (BD Biosciences) was injected into the subcutaneous space on the dorsal side of mice on both the left and right flank. […] Mice were sacrificed 7 days post-implantation. Matrigel plugs were excised and processed for histological analysis. Paraffin sections (5 um) were stained with Hematoxylin, Phloxine and Saffron (HPS) or anti-CD31 (PECAM, Abcam, Cambridge, UK). Vascular ingrowth was scored in a double blinded fashion and quantified using the following method: every individual section was scored for the degree of ingrowth, using five different categories of ingrowth (1=minimal ingrowth at the border of the plug, 5=capillary ingrowth throughout the total plug), and the mean ingrowth score per group was defined (6 sections per plug, 7 mice per group). The endothelial nature of the infiltrating cells was confirmed by the CD31 staining,
Data was analyzed using one-way ANOVA followed by Tukey's multiple comparison's test (P<0,05). For the analysis of the ingrowth in the matrigel plug statistical analysis was performed using ANOVA and unpaired T test.

As to `CC(=O)N(O)CCCCCNC(=O)CCC(=O)N(O)CCCCCNC(=O)CCC(=O)N(O)CCCCCN` [DFO, reference compound], in the test on MSCs, the “expression of Il-8, VEGF, KDR and Foxc2” value was “returned to basal levels”; the VEGF expression result is listed as “comparable to non-treated cells”. For the same compound, the capillary ingrowth entry in the test on male C57/BL6 mice is reported as “significantly increased capillary ingrowth”.
On the same counts, the results for `c1cnc2c(c1)ccc1cccnc12` [PHE, 1, 10-phenanthroline] are “still significantly increased”, “still highly expressed” and “significantly increased capillary ingrowth”.
